Measurements as given in patent US8613914B2, “Peptidomimetic sulfamide compounds and antiviral uses thereof” (Novartis AG, priority 2009, dated 2013).

These molecules were tested against HCV NS3-4A serine protease (full-length NS3-4A protein) (Hepatitis C virus genotype 1a (isolate 1) (HCV), UniProt P26664) (assay: HCV NS3-4A protease assay). Details: strain HCV-1, fluorogenic peptide substrate, read-out: Protease assay Ex. 12 IC50.
Sequence of HCV NS3-4A serine protease (full-length NS3-4A protein) (P26664 1027-1657): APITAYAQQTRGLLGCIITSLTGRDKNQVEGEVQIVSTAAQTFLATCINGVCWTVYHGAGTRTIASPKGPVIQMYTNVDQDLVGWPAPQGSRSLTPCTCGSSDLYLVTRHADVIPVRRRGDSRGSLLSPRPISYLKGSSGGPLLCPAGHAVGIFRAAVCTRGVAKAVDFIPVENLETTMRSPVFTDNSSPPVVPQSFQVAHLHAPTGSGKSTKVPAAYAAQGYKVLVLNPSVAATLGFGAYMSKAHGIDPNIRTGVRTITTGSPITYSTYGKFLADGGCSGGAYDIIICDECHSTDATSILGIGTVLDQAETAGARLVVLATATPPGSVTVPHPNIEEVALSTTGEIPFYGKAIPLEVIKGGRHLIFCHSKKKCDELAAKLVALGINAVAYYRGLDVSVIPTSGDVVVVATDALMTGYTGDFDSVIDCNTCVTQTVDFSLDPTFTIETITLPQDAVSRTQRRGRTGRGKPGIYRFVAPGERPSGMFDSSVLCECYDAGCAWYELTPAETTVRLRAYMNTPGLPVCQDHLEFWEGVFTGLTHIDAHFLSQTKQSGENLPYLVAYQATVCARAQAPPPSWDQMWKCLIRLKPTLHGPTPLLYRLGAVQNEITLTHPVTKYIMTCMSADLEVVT
Sequence of HCV NS3-4A serine protease (full-length NS3-4A protein) (P26664 1658-1711 partner): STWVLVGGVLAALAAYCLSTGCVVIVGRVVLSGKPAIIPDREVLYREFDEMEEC
Type: biochemical, HCV genotype 1a
Description: The inhibitory activity of certain compounds of Table A against HCV NS3-4A serine protease is determined in a homogenous assay using the full-length NS3-4A protein (genotype 1a, strain HCV-1) and a commercially available internally-quenched fluorogenic peptide substrate as described by Taliani, M., et al. 1996 Anal. Biochem. 240:60-67, which is incorporated by reference in its entirety.
Molecule C=CC1CC1(NC(=O)[C@@H]1C[C@@]2(CN1C(=O)[C@@H](NC(=O)[C@@H](NC(=O)C1CCCCN1C(C)C)C1CCCCC1)C(C)(C)C)C(C)(C)C21CCC1)C(=O)NS(=O)(=O)N1CC(F)(F)C1 (stereo partly drawn) [Compound 164, (5R,8S)-7-[(2S)-2-{[(2S)-2-cyclohexyl-2-{[(1-isopropylpiperidin-2-yl)carbonyl]amino}acetyl]amino}-3,3-dimethylbutanoyl]-N-(1-{[(3,3-difluoroazetidin-1-yl)sulfonyl]carbamoyl}-2-vinylcyclopropyl)-10,10-dimethyl-7-azadispiro[3.0.4.1]decane-8-carboxamide] has an IC50 of 8 nM.
C=C[C@@H]1C[C@]1(NC(=O)[C@@H]1C[C@@]2(CN1C(=O)[C@@H](NC(=O)[C@@H](NC(=O)c1cnn(-c3ccccc3)c1)C1CCCCC1)C(C)(C)C)C(C)(C)C21CCC1)C(=O)NS(=O)(=O)N1CCCC1 [Compound 184, (5R,8S)-7-{(2S)-2-[(cyclohexyl{[(1-phenyl-1H-pyrazol-4-yl)carbonyl]amino}acetyl)amino]-3,3-dimethylbutanoyl}-10,10-dimethyl-N-{(1R,2S)-1-[(pyrrolidin-1-ylsulfonyl)carbamoyl]-2-vinylcyclopropyl}-7-azadispiro[3.0.4.1]decane-8-carboxamide] gave an IC50 of 35 nM.
For C=C[C@@H]1C[C@]1(NC(=O)[C@@H]1C[C@@]2(CN1C(=O)[C@@H](NC(=O)[C@@H](NC(=O)[C@@H]1CCCCN1C(C)C)C1(C)CCCCC1)C1(C)CCOCC1)C(C)(C)C21CCC1)C(=O)NS(=O)(=O)N1CCCC1 [Compound 147, (5R,8S)-7-[(2S)-2-{[(2S)-2-({[(2S)-1-isopropylpiperidin-2-yl]carbonyl}amino)-2-(1-methylcyclohexyl)acetyl]amino}-2-(4-methyltetrahydro-2H-pyran-4-yl)acetyl]-10,10-dimethyl-N-{(1R,2S)-1-[(pyrrolidin-1-ylsulfonyl)carbamoyl]-2-vinylcyclopropyl}-7-azadispiro[3.0.4.1]decane-8-carboxamide], the IC50 was 1.5 nM.
Molecule C=C[C@@H]1C[C@]1(NC(=O)[C@@H]1C[C@@]2(CN1C(=O)[C@@H](NC(=O)[C@@H](NC(=O)CN1CCc3ccccc3C1)C1CCCCC1)C(C)(C)C)C(C)(C)C21CCC1)C(=O)NS(=O)(=O)N1CCCC1 [Compound 177, (5R,8S)-7-[(2S)-2-({cyclohexyl[(3,4-dihydroisoquinolin-2(1H)-ylacetyl)amino]acetyl}amino)-3,3-dimethylbutanoyl]-10,10-dimethyl-N-{(1R,2S)-1-[(pyrrolidin-1-ylsulfonyl)carbamoyl]-2-vinylcyclopropyl}-7-azadispiro[3.0.4.1]decane-8-carboxamide] has an IC50 of 25 nM.
C=C[C@@H]1C[C@]1(NC(=O)[C@@H]1C[C@@]2(CN1C(=O)[C@@H](NC(=O)[C@@H](NC(=O)c1cnc(C)cn1)C1CCCCC1)C(C)(C)C)C(C)(C)C21CCC1)C(=O)NS(=O)(=O)N1CCCC1 [Compound 199, (5R,8S)-7-{(2S)-2-[(cyclohexyl{[(5-methylpyrazin-2-yl)carbonyl]amino}acetyl)amino]-3,3-dimethylbutanoyl}-10,10-dimethyl-N-{(1R,2S)-1-[(pyrrolidin-1-ylsulfonyl)carbamoyl]-2-vinylcyclopropyl}-7-azadispiro[3.0.4.1]decane-8-carboxamide] was tested, and the IC50 was 14 nM.
Molecule C=C[C@@H]1C[C@]1(NC(=O)[C@@H]1C[C@@]2(CN1C(=O)[C@@H](NC(=O)[C@@H](NC(=O)[C@@H]1CCCCN1C(C)C)C1CCCCC1)C(C)(C)C)C(C)(C)C21CCC1)C(=O)NS(=O)(=O)N(C)CC(F)F [Compound 83, (5R,8S)-7-[(2S)-2-{[(2S)-2-cyclohexyl-2-({[(2S)-1-isopropylpiperidin-2-yl]carbonyl}amino)acetyl]amino}-3,3-dimethylbutanoyl]-N-[(1R,2S)-1-({[(2,2-difluoroethyl)(methyl)amino]sulfonyl}carbamoyl)-2-vinylcyclopropyl]-10,10-dimethyl-7-azadispiro[3.0.4.1]decane-8-carboxamide] has an IC50 of 2 nM.
C=C[C@@H]1C[C@]1(NC(=O)[C@@H]1C[C@@]2(CN1C(=O)[C@@H](NC(=O)[C@@H](NC(=O)c1nccc3ccccc13)C1CCCCC1)C(C)(C)C)C(C)(C)C21CCC1)C(=O)NS(=O)(=O)N1CCCC1 [Compound 195, (5R,8S)-7-[(2S)-2-({cyclohexyl[(isoquinolin-1-ylcarbonyl)amino]acetyl}amino)-3,3-dimethylbutanoyl]-10,10-dimethyl-N-{(1R,2S)-1-[(pyrrolidin-1-ylsulfonyl)carbamoyl]-2-vinylcyclopropyl}-7-azadispiro[3.0.4.1]decane-8-carboxamide] showed an IC50 of 75 nM.
Molecule C=C[C@@H]1C[C@]1(NC(=O)[C@@H]1C[C@@]2(CN1C(=O)[C@@H](NC(=O)[C@@H](NC(=O)c1c[nH]c3ccccc13)C1CCCCC1)C(C)(C)C)C(C)(C)C21CCC1)C(=O)NS(=O)(=O)N1CCCC1 [Compound 189, (5R,8S)-7-[(2S)-2-({cyclohexyl[(1H-indol-3-ylcarbonyl)amino]acetyl}amino)-3,3-dimethylbutanoyl]-10,10-dimethyl-N-{(1R,2S)-1-[(pyrrolidin-1-ylsulfonyl)carbamoyl]-2-vinylcyclopropyl}-7-azadispiro[3.0.4.1]decane-8-carboxamide] has an IC50 of 25 nM.
C=C[C@@H]1C[C@]1(NC(=O)[C@@H]1C[C@@]2(CN1C(=O)[C@@H](NC(=O)[C@@H](NC(=O)[C@@H]1CCCCN1C(C)C)C1CCCCC1)C(C)(C)C)C(C)(C)C21CCC1)C(=O)NS(=O)(=O)N1CCC(F)(F)C1 [Compound 143, (5R,8S)-7-[(2S)-2-{[(2S)-2-cyclohexyl-2-({[(2S)-1-isopropylpiperidin-2-yl]carbonyl}amino)acetyl]amino}-3,3-dimethylbutanoyl]-N-[(1R,2S)-1-{[(3,3-difluoropyrrolidin-1-yl)sulfonyl]carbamoyl}-2-vinylcyclopropyl]-10,10-dimethyl-7-azadispiro[3.0.4.1]decane-8-carboxamide] showed an IC50 of 3 nM.
Molecule C=C[C@@H]1C[C@]1(NC(=O)[C@@H]1C[C@@]2(CN1C(=O)[C@@H](NC(=O)[C@@H](NC(=O)c1cc(C)nn1C(C)(C)C)C1CCCCC1)C(C)(C)C)C(C)(C)C21CCC1)C(=O)NS(=O)(=O)N1CCCC1 [Compound 183, (5R,8S)-7-[(2S)-2-{[{[(1-tert-butyl-3-methyl-1H-pyrazol-5-yl)carbonyl]amino}(cyclohexyl)acetyl]amino}-3,3-dimethylbutanoyl]-10,10-dimethyl-N-{(1R,2S)-1-[(pyrrolidin-1-ylsulfonyl)carbamoyl]-2-vinylcyclopropyl}-7-azadispiro[3.0.4.1]decane-8-carboxamide] has an IC50 of 95 nM.
Work on C=C[C@@H]1C[C@]1(NC(=O)[C@@H]1C[C@@]2(CN1C(=O)[C@@H](NC(=O)[C@@H](NC(=O)c1ccc3c(ccn3C)c1)C1CCCCC1)C(C)(C)C)C(C)(C)C21CCC1)C(=O)NS(=O)(=O)N1CCCC1 [Compound 198, (5R,8S)-7-{(2S)-2-[(cyclohexyl{[(1-methyl-1H-indol-5-yl)carbonyl]amino}acetyl)amino]-3,3-dimethylbutanoyl}-10,10-dimethyl-N-{(1R,2S)-1-[(pyrrolidin-1-ylsulfonyl)carbamoyl]-2-vinylcyclopropyl}-7-azadispiro[3.0.4.1]decane-8-carboxamide] yielded an IC50 of 40 nM.
C=C[C@@H]1C[C@]1(NC(=O)[C@@H]1C[C@@]2(CN1C(=O)[C@@H](NC(=O)[C@@H](NC(=O)[C@@H]1CCCCN1C(C)C)C1CCCCC1)C(C)(C)C)C(C)(C)C21CCC1)C(=O)NS(=O)(=O)NC(C)(C)C [Compound 169, (5R,8S)-N-[(1R,2S)-1-{[(tert-butylamino)sulfonyl]carbamoyl}-2-vinylcyclopropyl]-7-[(2S)-2-{[(2S)-2-cyclohexyl-2-({[(2S)-1-isopropylpiperidin-2-yl]carbonyl}amino)acetyl]amino}-3,3-dimethylbutanoyl]-10,10-dimethyl-7-azadispiro[3.0.4.1]decane-8-carboxamide] gave an IC50 of 1.5 nM.
Work on C=C[C@@H]1C[C@]1(NC(=O)[C@@H]1C[C@@]2(CN1C(=O)[C@@H](NC(=O)[C@@H](NC(=O)c1cc3ccccc3n1C)C1CCCCC1)C(C)(C)C)C(C)(C)C21CCC1)C(=O)NS(=O)(=O)N1CCCC1 [Compound 178, (5R,8S)-7-{(2S)-2-[(cyclohexyl{[(1-methyl-1H-indol-2-yl)carbonyl]amino}acetyl)amino]-3,3-dimethylbutanoyl}-10,10-dimethyl-N-{(1R,2S)-1-[(pyrrolidin-1-ylsulfonyl)carbamoyl]-2-vinylcyclopropyl}-7-azadispiro[3.0.4.1]decane-8-carboxamide] yielded an IC50 of 80 nM.
In the case of C=C[C@@H]1C[C@]1(NC(=O)[C@@H]1C[C@@]2(CN1C(=O)[C@@H](NC(=O)[C@@H](NC(=O)[C@H]1CCCCN1C(C)C)C1CCCCC1)C(C)(C)C)C(C)(C)C21CCC1)C(=O)NS(=O)(=O)N1CCCCC1 [Compound 115, (5R,8S)-7-[(2S)-2-{[(2S)-2-cyclohexyl-2-({[(2R)-1-isopropylpiperidin-2-yl]carbonyl}amino)acetyl]amino}-3,3-dimethylbutanoyl]-10,10-dimethyl-N-{(1R,2S)-1-[(piperidin-1-ylsulfonyl)carbamoyl]-2-vinylcyclopropyl}-7-azadispiro[3.0.4.1]decane-8-carboxamide], the IC50 is reported as 4.5 nM.
C=C[C@@H]1C[C@]1(NC(=O)[C@@H]1C[C@@]2(CN1C(=O)[C@@H](NC(=O)[C@@H](NC(=O)c1ccccc1NC)C1CCCCC1)C(C)(C)C)C(C)(C)C21CCC1)C(=O)NS(=O)(=O)N1CCCC1 [Compound 182, (5R,8S)-7-{(2S)-2-[(cyclohexyl{[2-(methylamino)benzoyl]amino}acetyl)amino]-3,3-dimethylbutanoyl}-10,10-dimethyl-N-{(1R,2S)-1-[(pyrrolidin-1-ylsulfonyl)carbamoyl]-2-vinylcyclopropyl}-7-azadispiro[3.0.4.1]decane-8-carboxamide] was tested, and the IC50 was 70 nM.
